Where two headings read alike, the source gives them in different places.
Experiments:
ERK5 [1] = biological target: T1, ERK5 (Homo sapiens, UniProt Q13164); experiment: cell-based
Target sequence in this assay (Q13164 whole entry): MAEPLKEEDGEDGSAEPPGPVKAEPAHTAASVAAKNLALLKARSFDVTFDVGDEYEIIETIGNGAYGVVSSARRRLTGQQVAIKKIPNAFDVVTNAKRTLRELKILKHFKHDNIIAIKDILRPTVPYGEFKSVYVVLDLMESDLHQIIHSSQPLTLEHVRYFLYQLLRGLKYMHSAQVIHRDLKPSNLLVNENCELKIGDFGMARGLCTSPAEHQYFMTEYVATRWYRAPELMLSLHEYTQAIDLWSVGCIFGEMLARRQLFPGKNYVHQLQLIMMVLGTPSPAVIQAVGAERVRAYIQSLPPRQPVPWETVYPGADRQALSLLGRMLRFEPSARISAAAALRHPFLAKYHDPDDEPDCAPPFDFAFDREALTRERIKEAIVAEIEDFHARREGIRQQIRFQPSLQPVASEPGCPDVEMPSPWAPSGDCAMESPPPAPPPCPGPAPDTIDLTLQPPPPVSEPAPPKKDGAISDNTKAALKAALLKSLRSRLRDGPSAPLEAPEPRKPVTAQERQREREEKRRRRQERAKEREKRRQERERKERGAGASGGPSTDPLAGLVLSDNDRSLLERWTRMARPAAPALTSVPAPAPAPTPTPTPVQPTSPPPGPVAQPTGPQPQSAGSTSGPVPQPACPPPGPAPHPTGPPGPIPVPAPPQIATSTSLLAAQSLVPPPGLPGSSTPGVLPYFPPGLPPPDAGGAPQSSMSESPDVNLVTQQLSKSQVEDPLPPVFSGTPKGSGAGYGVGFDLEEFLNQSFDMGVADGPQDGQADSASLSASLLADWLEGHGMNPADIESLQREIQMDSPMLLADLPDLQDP
Description: (§1) Two assays were performed to assess the ERK5 inhibitory activity of compounds of the Examples, a cell-based assay and a cell-free biochemical assay.
(§2) The renal cancer cell line SN12C was transduced by a lentivirus pGreenFire1 MEF2 EF1 Neo (ref TR030VA-N) from SBI using standard infection protocol. pGreenFire1 MEF2 EF1 Neo allows the expression of luciferase gene under the control of minimal promoter with MEF2 transcriptional response elements. Cells harboring the reporter construct were selected by geneticin treatment. The selected cells were then transposed by a piggyback based plasmid pCM4007 allowing the expression of constitutively activated MEK5DD under control of TREG3 promoter, a doxycycline regulated promoter. Transposed cells were selected by puromycin treatment. Upon doxycycline treatment (1 μg/ml) MEK5DD was expressed. MEK5DD activates ERK5 that phosphorylates MEF2C protein. Activated MEF2C protein can bind to its transcriptional response elements. Then the luciferase is expressed. In a 96-well plate (96F nuncleon ref137101 thermofisher), 50,000 cells were inoculated in 142.5 μl of RPMI medium containing 10% fetal calf serum, 1% glutamine, and 1 μg/ml doxycycline. […] The luciferase activity was measured using the Kit Bright Glo Luminescent Cell Assay Cat E2610 (Promega) according to the manufacturer's protocol. Luminescence was determined using 0.2 second reading/well using a Tecan SPARK. IC50 values were calculated using XLFIT5 for Microsoft Excel using method 205.

ERK5 [2] = biological target: T1, ERK5
Target sequence in this assay (Q13164 55-347 limits assumed): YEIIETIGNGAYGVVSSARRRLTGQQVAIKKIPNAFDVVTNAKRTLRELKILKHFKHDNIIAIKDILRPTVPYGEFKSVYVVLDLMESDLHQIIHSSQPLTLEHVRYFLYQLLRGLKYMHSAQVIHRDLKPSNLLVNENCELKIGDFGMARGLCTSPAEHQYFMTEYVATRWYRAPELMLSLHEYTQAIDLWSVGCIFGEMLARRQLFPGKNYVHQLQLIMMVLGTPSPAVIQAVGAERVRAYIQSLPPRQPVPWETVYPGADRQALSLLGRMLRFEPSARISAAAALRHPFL
Description: as §1
(§3) An assay was performed to measure the capacity of each compound to inhibit ERK5 enzymatic activity. Compound potency was evaluated by Time-Resolved Forster Resonance Energy Transfer (FRET system). […] A mixture of 1 mM ATP and 1 μM biotinylated synthetic peptide was added (Biosyntan GmbH). This synthetic peptide represents amino acids 30-52 of Eukaryotic translation initiation factor 4E-binding protein 1 (see, e.g., the sequence under accession No. NP_004086.1) biotinylated at the N-terminus.

ERK5 [3] = biological target: T1, ERK5; remark: listed apart in the source
Target sequence in this assay (Q13164 whole entry): as the sequence (Q13164 whole entry) above
Description: as §1, §2

ERK5 [4] = biological target: T1, ERK5; experiment: biochemical
Target sequence in this assay (Q13164 55-347 limits assumed): as the sequence (Q13164 55-347 limits assumed) above
Description: as §1, §3

| IC50 (ERK5 [1]) [nM] | IC50 (ERK5 [2]) [nM] | Compound | IC50 (ERK5 [3]) [nM] | IC50 (ERK5 [4]) [nM] |
| --- | --- | --- | --- | --- |
| 179 | 148 | CN1CCC(c2nc3c(C4CCN(C(=O)c5ccc(OC(F)(F)F)cc5)CC4)ccnc3[nH]2)C1 (single isomer, unassigned) [Example 25, [4-[2-(1-Methylpyrrolidin-3-yl)-3H-imidazo[4,5-b]pyridin-7-yl]-1-piperidyl]-[4-(trifluoromethoxy)phenyl]methanone] | – | – |
| – | – | COC12CC(c3nc4c(C5CCN(C(=O)c6ccc(OC(F)(F)F)cc6N)CC5)c(F)cnc4[nH]3)(C1)C2 [Example 428, [2-amino-4-(trifluoromethoxy)phenyl]-[4-[6-fluoro-2-(3-methoxy-1-bicyclo[1.1.1]pentanyl)-3H-imidazo[4,5-b]pyridin-7-yl]-1-piperidyl]methanone] | 5 | 28 |

From US20260022116A1, “IMIDAZOPYRIDINE COMPOUNDS, PREPARATION THEREOF AND THERAPEUTIC USES THEREOF” (SANOFI, priority 2022, published 2026)
